# Biological target: T1, human GPR40 (Homo sapiens, UniProt O14842)
# T1 construct: expressed in transfected cells
# Experiment: Inositol Phosphate Turnover (IP1) Assay 2
# Assay type: cell-based
# Details: HEK cells stably expressing human GPR40, 15,000 cells per well, CisBio IP-One kit; read-out: Human IP1 (nM); Inositol Phophate Turnover (IP1) Assay 2 EC50 values
# Procedure: (§1) Human GPR40 stable cell-lines were generated in HEK cells. The expression plasmids were transfected using lipofectamine (Life Technologies) following manufacturer's instructions. Stable cell-lines were generated following drug selection and single cell cloning.
# The assay is performed in 384-well format. HEK cells stably expressing human GPR40 are plated at 15,000 cells per well in growth medium (DMEM/10% fetal calf serum). Cell plates are then incubated 16 hours at 37 degrees in a 5% CO2 incubator.
# Measurement of Inositol Phosphate Turnover (IP1) is performed using the CisBio IP-One kit (Part number 62IPAPEB). After the 16 hour incubation, the cells are washed with HEPES buffer and 10 ul of stimulation buffer (prepared as described in the kit) is added to each well. In a separate plate, compounds are diluted in DMSO (400-fold over the final concentration in the assay well) and 25 nl is acoustically transferred to the appropriate well in the assay cell plate. The plates are then incubated for 60 minutes at 37 degrees. 10 ul of detection buffer (also prepared as described in the IP-One kit) is added to each well and the plates are incubated for 60 minutes in the dark. The plates are then read in a Perkin Elmer EnVision or equivalent reader able to measure FRET. Fluorescent ratio of emission at 665 and 620 nm is then converted to IP1 concentration by back calculating from an IP1 standard curve prepared at the time of the assay.
# T1 sequence (O14842 whole entry): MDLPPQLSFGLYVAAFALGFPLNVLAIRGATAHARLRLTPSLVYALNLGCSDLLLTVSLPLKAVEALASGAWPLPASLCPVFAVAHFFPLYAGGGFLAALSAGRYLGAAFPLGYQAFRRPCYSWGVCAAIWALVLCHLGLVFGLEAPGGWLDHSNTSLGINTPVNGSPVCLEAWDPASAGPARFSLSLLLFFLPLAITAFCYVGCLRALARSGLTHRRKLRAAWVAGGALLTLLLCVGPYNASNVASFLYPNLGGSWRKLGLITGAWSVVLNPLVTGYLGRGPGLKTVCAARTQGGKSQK
row,SMILES,EC50 [nM]
1,"C[C@H](C(=O)O)[C@H](c1ccc2c(c1)OC(C1CC3(C1)CN(c1ncccc1C(F)(F)F)C3)CC2)C1CC1 (single isomer, unassigned) [Example 1, (2S,3R)-3-cyclopropyl-2-methyl-3-((R or S)-2-(2-(3-(trifluoro-methyl)pyridin-2-yl)-2-azaspiro[3.3]heptan-6-yl)chroman-7-yl)propanoic Acid]",141
2,"C[C@H](C(=O)O)[C@H](c1ccc2c(c1)OC(C1CC3(C1)CN(c1ncccc1C(F)(F)F)C3)CC2)C1CC1 (single isomer, unassigned) [Example 2, (2S,3R)-3-cyclopropyl-2-methyl-3-((R or S)-2-(2-(3-(trifluoromethyl)pyridin-2-yl)-2-azaspiro[3.3]heptan-6-yl)chroman-7-yl)propanoic Acid]",156
3,"C[C@H](C(=O)O)[C@H](c1ccc2c(c1)OC(C1[C@@H]3COC[C@H]1CN(Cc1cc(C(F)(F)F)ccc1C(F)(F)F)C3)CC2)C1CC1 (stereo partly drawn) [Example 40, (2S,3R)-3-(2-((1R,5S)-7-(2,5-bis(trifluoromethyl)benzyl)-3-oxa-7-azabicyclo[3.3.1]nonan-9-yl)chroman-7-yl)-3-cyclopropyl-2-methylpropanoic acid]",38.5

# Same assay, conditions: HEK cells stably expressing human GPR40; read-out: EC50 values in the Inositol Phophate Turnover (IP1) Assay 2
row,SMILES,EC50 [nM]
1,"C[C@H](C(=O)O)[C@H](c1ccc2c(c1)OC(C1CC3(C1)CN(c1ncccc1C(F)(F)F)C3)CC2)C1CC1 (single isomer, unassigned) [Example 1, (2S,3R)-3-cyclopropyl-2-methyl-3-((R or S)-2-(2-(3-(trifluoro-methyl)pyridin-2-yl)-2-azaspiro[3.3]heptan-6-yl)chroman-7-yl)propanoic Acid]",< 6500
2,"C[C@H](C(=O)O)[C@H](c1ccc2c(c1)OC(C1[C@@H]3COC[C@H]1CN(Cc1cc(C(F)(F)F)ccc1C(F)(F)F)C3)CC2)C1CC1 (stereo partly drawn) [Example 40, (2S,3R)-3-(2-((1R,5S)-7-(2,5-bis(trifluoromethyl)benzyl)-3-oxa-7-azabicyclo[3.3.1]nonan-9-yl)chroman-7-yl)-3-cyclopropyl-2-methylpropanoic acid]",< 6500

# Biological target: T1, human GPR40
# Experiment: Inositol Phosphate Turnover (IP1) Assay
# Assay type: cell-based
# Details: HEK cells stably expressing human GPR40, 7500 cells per well, CisBio IP-One kit
# Procedure: as §1
# The assay was performed in 384-well format. HEK cells stably expressing human GPR40 were plated at 7500 cells per well in growth medium (DMEM/10% fetal calf serum). Cell plates were then incubated 16 hours at 37 degrees in a 5% CO2 incubator. Measurement of Inositol Phosphate Turnover (IP1) was performed using the CisBio IP-One kit (Part number 62IPAPEB). After the 16 hour incubation, the growth media was removed by centrifugation using the BlueWasher (AusWasher GUI Ver. v1.0.1.8) Protocol #21-“Light Dry” and 10 ul of stimulation buffer (prepared as described in the kit) was added to each well. In a separate plate, compounds were diluted in DMSO (200-fold over the final concentration in the assay well) and 50 nl was acoustically transferred to the appropriate well in the assay cell plate. The plates were then incubated for 60 minutes at 37 degrees in a 5% CO2 incubator. 10 ul of detection buffer (also prepared as described in the IP-One kit) was added to each well and the plates were incubated at room temperature for 60 minutes in the dark. The plates were then read in a Perkin Elmer EnVision or equivalent reader able to measure FRET. Fluorescent ratio of emission at 665 and 620 nm was then converted to IP1 concentration by back calculating from an IP1 standard curve prepared at the time of the assay. Data was normalized to % activity using a reference compound and EC50s determined using a standard 4-parameter fit.
row,SMILES,EC50 [µM]
1,"C[C@H](C(=O)O)[C@H](c1ccc2c(c1)OC(C1C3COCC1CN([C@@H](C)c1cc(C(F)(F)F)ccc1C(F)(F)F)C3)CC2)C1CC1 (stereo partly drawn) [Example 6, (2S,3R)-3-(2-((1R,5S)-7-((S)-1-(2,5-bis(trifluoro-methyl)phenyl)ethyl)-3-oxa-7-azabicyclo[3.3.1]-nonan-9-yl)chroman-7-yl)-3-cyclopropyl-2-methyl-propanoic acid]",0.0215
2,"C[C@H](C(=O)O)[C@H](c1ccc2c(c1)OC(C1CC3CCC(C1)N3[C@@H](C)c1cc(C(F)(F)F)ccc1C(F)(F)F)CC2)C1CC1 (stereo partly drawn) [Example 13, (2S,3R)-3-(2-((1R5S)-8-((S)-1-(2,5-bis(trifluoromethyl)phenyl)ethyl)-8-azabicyclo[3.2.1]octan-3-yl)chroman-7-yl)-3-cyclopropyl-2-methylpropanoic Acid]",0.0119
3,"C[C@H](C(=O)O)[C@H](c1ccc2c(c1)OC(C1CC3CCC(C1)N3[C@H](C)c1cc(C(F)(F)F)ccc1C(F)(F)F)CC2)C1CC1 (stereo partly drawn) [Example 14, (2S,3R)-3-(2-((1R,5S)-8-((R)-1-(2,5-bis(trifluoro-methyl)phenyl)ethyl)-8-azabicyclo[3.2.1]octan-3-yl)chroman-7-yl)-3-cyclopropyl-2-methyl-propanoic acid]",0.0111
4,"C[C@H](C(=O)O)[C@H](c1ccc2c(c1)OC(C1CC3CCC(C1)N3[C@H](C)c1cc(F)ccc1C(F)(F)F)CC2)C1CC1 (stereo partly drawn) [Example 15, (2S,3R)-3-cyclopropyl-3-(2-((1R,5S)-8-((R)-1-(5-fluoro-2-(trifluoromethyl)-phenyl)ethyl)-8-aza-bicyclo[3.2.1]octan-3-yl)chroman-7-yl)-2-methylpropanoic acid]",0.0175
5,"C[C@H](C(=O)O)[C@H](c1ccc2c(c1)OC(C1C[C@@H]3C[C@@H]1CN3[C@@H](C)c1cc(C(F)(F)F)ccc1C(F)(F)F)CC2)C1CC1 (stereo partly drawn) [Example 16, (2S,3R)-3-(2-((1S,4S)-2-((S)-1-(2,5-bis(trifluoromethyl)phenyl)ethyl)-2-aza-bicyclo-[2.2.1]heptan-5-yl)chroman-7-yl)-3-cyclopropyl-2-methylpropanoic Acid]",0.00128
6,"C[C@H](C(=O)O)[C@H](c1ccc2c(c1)OC(C1CC3CC1CN3[C@H](C)c1cc(C(F)(F)F)ccc1C(F)(F)F)CC2)C1CC1 (stereo partly drawn) [Example 17, (2S,3R)-3-(2-((1S,4S)-2-((R)-1-(2,5-bis(trifluoromethyl)-phenyl)ethyl)-2-azabicyclo-[2.2.1]heptan-5-yl)chroman-7-yl)-3-cyclopropyl-2-methyl-propanic acid]",0.000687
7,"C[C@H](C(=O)O)[C@H](c1ccc2c(c1)OC(C1CC3CC1CN3[C@@H](C)c1cc(F)ccc1C(F)(F)F)CC2)C1CC1 (stereo partly drawn) [Example 18, (2S,3R)-3-cyclopropyl-3-(2-((1S,4S)-2-((S)-1-(5-fluoro-2-(trifluoromethyl)phenyl)ethyl)-2-azabicyclo[2.2.1]heptan-5-yl)chroman-7-yl)-2-methyl-propanoic acid]",0.0042
8,"C[C@H](C(=O)O)[C@H](c1ccc2c(c1)OC(C1CC3CC1CN3[C@@H](C)c1cc(F)ccc1C(F)(F)F)CC2)C1CC1 (stereo partly drawn) [Example 19, (2S,3R)-3-cyclopropyl-3-(2-((1S,4S)-2-((S)-1-(5-fluoro-2-(trifluoromethyl)phenyl)ethyl)-2-azabicyclo[2.2.1]heptan-5-yl)chroman-7-yl)-2-methyl-propanic acid]",0.00262
9,"C[C@H](C(=O)O)[C@H](c1ccc2c(c1)OC(C1CC3C[C@@H]1CN3[C@@H](C)c1cc(F)ccc1C(F)(F)F)CC2)C1CC1 (stereo partly drawn) [Example 38, (2S,3R)-3-cyclopropyl-3-(2-((4S)-2-((S)-1-(5-fluoro-2-(trifluoromethyl)phenyl)ethyl)-2-azabicyclo[2.2.1]heptan-5-yl)chroman-7-yl)-2-methyl-propanoic acid]",0.0106
10,C[C@H](C(=O)O)[C@H](c1ccc2c(c1)OC(C13CCN([C@@H](C)c4cc(F)ccc4OC(F)(F)F)C(C1)C3)CC2)C1CC1 (stereo partly drawn) [Example 42],0.00209

# Source: patent US11072602B2, “Antidiabetic heterocyclic compounds” (Merck Sharp & Dohme Corp., priority 2016, dated 2021)
